# Assay results published in US9399047B2, “Composition and method to alleviate joint pain using phospholipids and roe extract” (U.S. NUTRACEUTICALS, LLC, priority 2009, dated 2016).
# Experiments:
# [1] = cited from earlier work
# lens epithelial cells = conditions: in vitro, umol/L concentrations; cited from earlier work
# NO, PGE-2 and TNF-Alpha = conditions: induced uveitis; cited from earlier work
# [2] = 4 mgs/day, compared to untreated subjects; cited from earlier work
# healthy adults = conditions: eight weeks, 6 mg per day; cited from earlier work
# [3] = test system: cellular membrane lipid peroxidation; conditions: cited from earlier work
# [4] = cited from earlier work; remark: listed apart in the source
# [5] = serum; cited from earlier work
# [6] = test system: C-Reactive Protein (C-RP); conditions: human subjects with high risk levels of C-RP, three months of treatment; cited from earlier work
# [7] = cited from earlier work; remark: listed apart in the source
# rats = conditions: cited from earlier work
# [8] = test system: photo-receptors, ganglion and neuronal cell; conditions: cited from earlier work
# inflammatory markers = conditions: astaxanthin 1 mg/kg, cited from earlier work
# solubility = format: physicochemical
# From the text: It is also possible to use a pure diol of the S,S′ astaxanthin, including a synthetic diol with a surfactant and/or the low molecular weight hyaluronic acid. It is possible to use that pure diol in combination with the EPA rich algae based oil or other fish, roe extract, or plant based oil and/or phospholipid and/or surfactant as described above, and which is admixed with either astaxanthin derived from Haematococcus pluvialis or the free diol form in substantially pure S,S′ enantiomer form. It is possible to add synthetically derived mixed enantiomers of the diol. The diol of the S,S′ astaxanthin is possible because in cases of krill oil and possibly algae based oils and Hp derived and other types, there are principally diesters and monoesters respectively with very little diol, which is insoluble. […] It is possible to synthesize asymmetrically the S,S′ pure diol. Despite the pure diol's poor solubility in some examples, there may be an active transport mechanism related to its bioavailability, or conversely, that only in the diol form is the monoester or diester forms transferred from the intestines to the blood. […]
compound,measurement,setting,value
"CCCCCCCCCCCCCCCC(=O)O[C@H]1CC(C)(C)C(/C=C/C(C)=C/C=C/C(C)=C/C=C/C=C(C)/C=C/C=C(C)/C=C/C2=C(C)C(=O)[C@@H](OC(=O)CCCCCCCCCCCCCCC)CC2(C)C)=C(C)C1=O [(3R,3′R-astaxanthin dipalmitate, reference compound]",relative absorption of astaxanthin compared to the other two isomers,"[1]; men, astaxanthin fatty acyl diesters (Coral-Hinostroza et al. 2004)",higher relative absorption
"CC1=C(/C=C/C(C)=C/C=C/C(C)=C/C=C/C=C(C)/C=C/C=C(C)/C=C/C2=C(C)C(=O)[C@@H](O)CC2(C)C)C(C)(C)C[C@H](O)C1=O [Astaxanthin, 3,3′-dihydroxy-β-β-carotene-4,4′-dione]",UVB induced lipid peroxidative mediated cell damage,lens epithelial cells,suppresses
same,"ocular anti-inflammatory activity by suppression of NO, PGE-2 and TNF-Alpha","NO, PGE-2 and TNF-Alpha",dose dependant ocular anti-inflammatory activity
same,post exercise joint fatigue following strenuous knee exercise,[2],prevented post exercise joint fatigue
same,negative effect of supplementation,healthy adults,no negative effect
same,effect on pro-oxidant activity of Vioxx,[3],negate the pro-oxidant activity of Vioxx
same,"quenching of singlet oxygen, times more powerful than Vitamin E",[4]; versus Vitamin E,about 50 times
same,"quenching of singlet oxygen, relative to lutein",[4]; versus lutein,three times more powerful
same,"quenching of singlet oxygen, times more powerful than β-carotene",[4]; versus β-carotene,11 times
same,Cmax,[5],65 ng/mL
same,T1/2,[5],16 h
same,Tmax,[5],8 h
same,patients whose serum C-RP levels dropped below the risk level,[6],43%
same,"free radical quenching ability, times more powerful than Vitamin C",[7]; versus Vitamin C,65 times
same,"free radical quenching ability, times more powerful than Vitamin E",[7]; versus Vitamin E,14 times
same,"free radical quenching ability, times more powerful than lutein",[7]; versus lutein,47 times
same,"free radical quenching ability, times more powerful than β-carotene",[7]; versus β-carotene,54 times
same,Oral LD 50,"rats; rat, in vivo, po",600 mg/kg
same,NOAEL,rats; rats,465 mg/kg
same,crossing of the blood-brain-retina barrier,[8]; direct measurement of retinal astaxanthin concentrations,crosses the blood-brain-retina barrier
same,"photon induced damage of photo-receptors, ganglion and neuronal cell damage",[8]; in vivo,protection
same,down regulates TNF-alpha production,inflammatory markers; in vitro and in vivo,75%
same,down regulates prostaglandin E-2 production (PGE-2),inflammatory markers; in vitro and in vivo,75%
same,inhibits nitric oxide synthase (Nos) expression of nitric oxide,inflammatory markers; in vitro and in vivo,58%
same,effects on inflammatory markers compared with prednisolone,inflammatory markers,nearly as effective as prednisolone
"CC1=C(/C=C/C(C)=C/C=C/C(C)=C/C=C/C=C(C)/C=C/C=C(C)/C=C/C2=C(C)C(=O)[C@@H](O)CC2(C)C)C(C)(C)C[C@H](O)C1=O [diol of the S,S′ astaxanthin]",solubility,solubility,insoluble
CC1=C(/C=C/C(C)=C/C=C/C(C)=C/C=C/C=C(C)/C=C/C=C(C)/C=C/C2=C(C)C(=O)[C@@H](O)CC2(C)C)C(C)(C)C[C@H](O)C1=O [free astaxanthin diol],uptake relative to esterified astaxanthin,"[1]; human plasma, feeding studies",4-5 times
